Measured values as given in the NIST ThermoML archive (doi:10.1016/j.jct.2005.08.002).

Experiment: xn = mol fraction of the nth substance listed
Conditions: 101 kPa, Liquid; for viscosity: Capillary tube (Ostwald / Ubbelohde) method; for speed of sound: Sing-around technique in a fixed-path interferometer; for mass density: Vibrating tube method

CC1CCCC1 [methylcyclopentane] + CC(C)=O
Conditions	mass density, 293.15 K [kg/m3]	mass density, 298.15 K [kg/m3]	mass density, 303.15 K [kg/m3]	speed of sound, 293.15 K [m/s]	speed of sound, 298.15 K [m/s]	speed of sound, 303.15 K [m/s]	viscosity, 293.15 K [mPa·s]	viscosity, 298.15 K [mPa·s]	viscosity, 303.15 K [mPa·s]
x1 = 0.05	785.97	780.3	774.59	1177	1155	1132	0.323	0.308	0.294
x1 = 0.0985	781.33	775.71	770.04	1171	1148	1126	0.323	0.308	0.294
x1 = 0.2004	773.02	767.49	761.9	1162	1139	1116	0.333	0.317	0.302
x1 = 0.3009	766.13	760.68	755.18	1157	1134	1111	0.347	0.33	0.316
x1 = 0.4024	760.79	755.43	750.02	1156	1133	1110	0.361	0.344	0.328
x1 = 0.5029	756.32	751.06	745.74	1157	1134	1111	0.378	0.359	0.341
x1 = 0.6052	752.71	747.55	742.34	1161	1137	1114	0.396	0.375	0.355
x1 = 0.7112	749.82	744.77	739.67	1166	1143	1120	0.418	0.395	0.374
x1 = 0.8139	747.82	742.89	737.92	1174	1151	1127	0.438	0.415	0.393
x1 = 0.9084	746.75	741.94	737.09	1184	1161	1137	0.467	0.442	0.418
x1 = 0.954	746.58	741.83	737.04	1190	1167	1143	0.482	0.457	0.432
x1 = 1	746.64	741.94	737.21	1197	1174	1150	0.504	0.476	0.45

CC1CCCC1 [methylcyclopentane] + CCC(C)=O
Conditions	mass density, 293.15 K [kg/m3]	mass density, 298.15 K [kg/m3]	mass density, 303.15 K [kg/m3]	speed of sound, 293.15 K [m/s]	speed of sound, 298.15 K [m/s]	speed of sound, 303.15 K [m/s]	viscosity, 293.15 K [mPa·s]	viscosity, 298.15 K [mPa·s]	viscosity, 303.15 K [mPa·s]
x1 = 0.048	800.42	795.21	789.96	1208	1187	1165	0.397	0.378	0.36
x1 = 0.0982	795.99	790.8	785.57	1203	1181	1160	0.396	0.376	0.358
x1 = 0.1942	787.99	782.84	777.64	1195	1173	1151	0.397	0.377	0.358
x1 = 0.2911	780.72	775.6	770.44	1188	1166	1144	0.402	0.383	0.364
x1 = 0.398	773.4	768.32	763.2	1183	1161	1139	0.408	0.386	0.367
x1 = 0.5036	766.98	761.95	756.87	1181	1158	1136	0.416	0.394	0.374
x1 = 0.6033	761.6	756.62	751.6	1180	1157	1135	0.427	0.404	0.383
x1 = 0.6993	757.02	752.08	747.11	1181	1158	1135	0.439	0.415	0.394
x1 = 0.8045	752.53	747.68	742.78	1184	1161	1138	0.455	0.431	0.409
x1 = 0.906	749.02	744.24	739.42	1189	1166	1143	0.475	0.448	0.425
x1 = 0.9517	747.8	743.03	738.24	1193	1169	1146	0.487	0.46	0.436
x1 = 1	746.64	741.94	737.21	1197	1174	1150	0.504	0.476	0.45

CC1CCCC1 [methylcyclopentane] + CCCC(C)=O
Conditions	mass density, 293.15 K [kg/m3]	mass density, 298.15 K [kg/m3]	mass density, 303.15 K [kg/m3]	speed of sound, 293.15 K [m/s]	speed of sound, 298.15 K [m/s]	speed of sound, 303.15 K [m/s]	viscosity, 293.15 K [mPa·s]	viscosity, 298.15 K [mPa·s]	viscosity, 303.15 K [mPa·s]
x1 = 0.0493	802.59	797.76	792.9	1228	1207	1187	0.49	0.462	0.439
x1 = 0.0981	798.89	794.06	789.19	1224	1203	1182	0.485	0.459	0.434
x1 = 0.1993	791.61	786.76	781.89	1216	1194	1173	0.479	0.452	0.43
x1 = 0.3038	784.4	779.56	774.7	1207	1185	1164	0.473	0.449	0.425
x1 = 0.3972	778.23	773.38	768.51	1201	1179	1157	0.47	0.444	0.421
x1 = 0.5007	771.75	766.91	762.04	1196	1174	1152	0.469	0.444	0.42
x1 = 0.6069	765.58	760.74	755.87	1193	1171	1148	0.468	0.442	0.419
x1 = 0.6989	760.33	755.52	750.68	1191	1168	1146	0.47	0.444	0.422
x1 = 0.8052	754.83	750.05	745.24	1190	1168	1145	0.477	0.451	0.427
x1 = 0.9039	750.38	745.64	740.86	1193	1170	1147	0.487	0.458	0.433
x1 = 0.9508	748.6	743.88	739.12	1195	1172	1148	0.493	0.466	0.44
x1 = 1	746.64	741.94	737.21	1197	1174	1150	0.504	0.476	0.45
